Test results reported in ChEMBL document CHEMBL1153753, “Structure-activity relationships and mechanism of action of antitumor bis 8-hydroxyquinoline substituted benzylamines” (Eur J Med Chem, 2010).
pEC50, pIC50: −log10 of the molar value. Active and inactive are the calls of the source. The calls are words filed in the database; no cut-off is given here.

Experiments:
[1] = Cytotoxicity against human KB3 cells after 72 hrs by MTS assay; assay type: functional; details: KB3, 72 h
[2] = Antiproliferative activity against human U87 cells expressing GFP after 3 days by flash-cytometry; assay type: functional, U-87MG ATCC; details: U-87 MG, 72 h, read-out: ED50 (the source's name)
U-87MG ATCC [3] = test: Antiproliferative activity against human U87 cells expressing GFP assessed as reduction in cell density at 20 uM by flash-cytometry; assay type: functional, cell-based
[4] = Cytotoxicity against human U373 cells by MTT assay; assay type: functional, cell-based, U-373MG ATCC; details: U373 MG
[5] = Disregulation of endoplasmic reticulum stress responsive gene expression in human U87 cells assessed as change in Chop mRNA level at 0.5 uM after 16 hrs by microarray analysis relative to untreated control; assay type: functional, cell-based; details: U-87MG ATCC
[6] = Disregulation of endoplasmic reticulum stress responsive gene expression in human U87 cells assessed as change in ATF3 mRNA level at 0.5 uM after 16 hrs by microarray analysis relative to untreated control; assay type: functional, cell-based; details: U-87MG ATCC
[7] = Disregulation of endoplasmic reticulum stress responsive gene expression in human U87 cells assessed as change in ATF4 mRNA level at 0.5 uM after 16 hrs by microarray analysis relative to untreated control; assay type: functional, cell-based; details: U-87MG ATCC
[8] = Disregulation of endoplasmic reticulum stress responsive gene expression in human U87 cells assessed as change in RGS16 mRNA level at 0.5 uM after 3 hrs by microarray analysis relative to untreated control; assay type: functional, cell-based; details: U-87MG ATCC
[9] = Disregulation of endoplasmic reticulum stress responsive gene expression in human U87 cells assessed as change in PUMA mRNA level at 0.5 uM after 16 hrs by microarray analysis relative to untreated control; assay type: functional, cell-based; details: U-87MG ATCC
[10] = Disregulation of endoplasmic reticulum stress responsive gene expression in human U87 cells assessed as change in ARN1 mRNA level at 0.5 uM after 16 hrs by microarray analysis relative to untreated control; assay type: functional, cell-based; details: U-87MG ATCC
[11] = Disregulation of DNA-damage and oxidative stress responsive gene expression in human U87 cells assessed as change in GADD45A mRNA level at 0.5 uM after 16 hrs by microarray analysis relative to untreated control; assay type: functional, U-87MG ATCC
[12] = Disregulation of inflammation related gene expression in human U87 cells assessed as change in IL6 mRNA level at 0.5 uM after 16 hrs by microarray analysis relative to untreated control; assay type: functional, cell-based; details: U-87MG ATCC
[13] = Disregulation of inflammation related gene expression in human U87 cells assessed as change in IL8 mRNA level at 0.5 uM after 16 hrs by microarray analysis relative to untreated control; assay type: functional, cell-based; details: U-87MG ATCC
[14] = Disregulation of inflammation related gene expression in human U87 cells assessed as change in IL1F5 mRNA level at 0.5 uM after 16 hrs by microarray analysis relative to untreated control; assay type: functional, cell-based; details: U-87MG ATCC
[15] = Disregulation of inflammation related gene expression in human U87 cells assessed as change in EREG mRNA level at 0.5 uM after 3 hrs by microarray analysis relative to untreated control; assay type: functional, cell-based; details: U-87MG ATCC
[16] = Disregulation of inflammation related gene expression in human U87 cells assessed as change in IFRD1 mRNA level at 0.5 uM after 16 hrs by microarray analysis relative to untreated control; assay type: functional, cell-based; details: U-87MG ATCC
[17] = Disregulation of inflammation related gene expression in human U87 cells assessed as change in CCL17 mRNA level at 0.5 uM after 3 hrs by microarray analysis relative to untreated control; assay type: functional, cell-based; details: U-87MG ATCC
[18] = Disregulation of inflammation related gene expression in human U87 cells assessed as change in CXCL3 mRNA level at 0.5 uM after 16 hrs by microarray analysis relative to untreated control; assay type: functional, cell-based; details: U-87MG ATCC
[19] = Disregulation of apoptosis related gene expression in human U87 cells assessed as change in NOXA mRNA level at 0.5 uM after 3 hrs by microarray analysis relative to untreated control; assay type: functional, cell-based; details: U-87MG ATCC
[20] = Disregulation of apoptosis related gene expression in human U87 cells assessed as change in IGFBP3 mRNA level at 0.5 uM after 16 hrs by microarray analysis relative to untreated control; assay type: functional, cell-based; details: U-87MG ATCC
[21] = Disregulation of apoptosis related gene expression in human U87 cells assessed as change in BIM mRNA level at 0.5 uM after 16 hrs by microarray analysis relative to untreated control; assay type: functional, cell-based; details: U-87MG ATCC
[22] = Disregulation of apoptosis related gene expression in human U87 cells assessed as change in FAS mRNA level at 0.5 uM after 16 hrs by microarray analysis relative to untreated control; assay type: functional, cell-based; details: U-87MG ATCC
[23] = Disregulation of apoptosis related gene expression in human U87 cells assessed as change in GDF15 mRNA level at 0.5 uM after 16 hrs by microarray analysis relative to untreated control; assay type: functional, cell-based; details: U-87MG ATCC
[24] = Disregulation of apoptosis related gene expression in human U87 cells assessed as change in E2F1 mRNA level at 0.5 uM after 16 hrs by microarray analysis relative to untreated control; assay type: functional, cell-based; details: U-87MG ATCC
[25] = Disregulation of cell survival related gene expression in human U87 cells assessed as change in BCL2L10 mRNA level at 0.5 uM after 16 hrs by microarray analysis relative to untreated control; assay type: functional, cell-based; details: U-87MG ATCC
[26] = Disregulation of cell cycle related gene expression in human U87 cells assessed as change in cyclin D mRNA level at 0.5 uM after 16 hrs by microarray analysis relative to untreated control; assay type: functional, cell-based; details: U-87MG ATCC
[27] = Disregulation of cell cycle related gene expression in human U87 cells assessed as change in CCPG1 mRNA level at 0.5 uM after 16 hrs by microarray analysis relative to untreated control; assay type: functional, cell-based; details: U-87MG ATCC
[28] = Disregulation of cell cycle related gene expression in human U87 cells assessed as change in CDK2 mRNA level at 0.5 uM after 16 hrs by microarray analysis relative to untreated control; assay type: functional, cell-based; details: U-87MG ATCC
[29] = Disregulation of cell cycle related gene expression in human U87 cells assessed as change in EDN1 mRNA level at 0.5 uM after 3 hrs by microarray analysis relative to untreated control; assay type: functional, cell-based; details: U-87MG ATCC
[30] = Disregulation of cell cycle related gene expression in human U87 cells assessed as change in SKP2 mRNA level at 0.5 uM after 16 hrs by microarray analysis relative to untreated control; assay type: functional, cell-based; details: U-87MG ATCC
[31] = Disregulation of cell cycle related gene expression in human U87 cells assessed as change in CDCA7 mRNA level at 0.5 uM after 16 hrs by microarray analysis relative to untreated control; assay type: functional, cell-based; details: U-87MG ATCC
[32] = Disregulation of cell development related gene expression in human U87 cells assessed as change in HOXA6 mRNA level at 0.5 uM after 16 hrs by microarray analysis relative to untreated control; assay type: functional, cell-based; details: U-87MG ATCC
[33] = Disregulation of cell development related gene expression in human U87 cells assessed as change in HQXB9 mRNA level at 0.5 uM after 16 hrs by microarray analysis relative to untreated control; assay type: functional, cell-based; details: U-87MG ATCC
[34] = Disregulation of cell development related gene expression in human U87 cells assessed as change in ISL2 mRNA level at 0.5 uM after 16 hrs by microarray analysis relative to untreated control; assay type: functional, cell-based; details: U-87MG ATCC
U-87MG ATCC [35] = test: Antiproliferative activity against human U87 cells expressing GFP assessed as apparent cell death at 20 uM after 3 days by flash-cytometry; assay type: functional, cell-based
[36] = Disregulation of inflammation related gene expression in human U87 cells assessed as change in IL1A mRNA level at 0.5 uM after 16 hrs by microarray analysis relative to untreated control; assay type: functional, cell-based; details: U-87MG ATCC

Cc1ccc(CN(Cc2ccc(O)c3ncccc23)Cc2ccc(O)c3ncccc23)cc1
CC50 [1]: 0.003 µM
pEC50 [2]: > 6.70
Activity (U-87MG ATCC [3]): Active
pIC50 [4]: 7.28
fold change (FC) [5]: 3
Activity [6]: Active
fold change (FC) [7]: 3
fold change (FC) [8]: > 1.4
fold change (FC) [9]: 3
fold change (FC) [10]: 3
fold change (FC) [11]: 3
fold change (FC) [12]: 3
fold change (FC) [13]: 3
fold change (FC) [14]: 3
fold change (FC) [15]: > 1.4
fold change (FC) [16]: 3
fold change (FC) [17]: > 1.4
fold change (FC) [18]: 3
fold change (FC) [19]: > 1.4
fold change (FC) [20]: 3
fold change (FC) [21]: 3
fold change (FC) [22]: 3
fold change (FC) [23]: 3
fold change (FC) [24]: 3
fold change (FC) [25]: 3
fold change (FC) [26]: 3
fold change (FC) [27]: 3
fold change (FC) [28]: 3
fold change (FC) [29]: > 1.4
fold change (FC) [30]: 3
fold change (FC) [31]: 3
fold change (FC) [32]: 3
fold change (FC) [33]: 3
fold change (FC) [34]: 3
Activity (U-87MG ATCC [35]): inactive
Activity [36]: Active
